Measured values: patent US5700478A, “Water-soluble pressure-sensitive mucoadhesive and devices provided therewith for emplacement in a mucosa-lined body cavity” (Cygnus, Inc., priority 1995, dated 1997)
Where a name gives a salt, the structure may show the parent alone.

How the values were obtained:
[1] = Transport through pig mucosa (Franz diffusion cells); assay type: in vitro ADME, porcine
Description: In this example, bilaminate mucoadhesive discs, containing as an active substance benzocaine or Dyclonine HCl, were affixed to porcine buccal mucosa and mounted on Franz diffusion cells as described in Example XIII. Avenge amounts of active substance was measured using HPLC, and percents were expressed as a percent of the total initially in the disc.
Particularly, the donor side of the cell was filled with pH 6 buffer and the receiver side was filled with phosphate buffered saline ("PBS"). Samples were taken from the receiver side every thirty minutes for three hours, and the samples were analyzed by HPLC. The average amount and the average percent of active substance appearing in the receiver side after three hours are shown in Table IV.

[2] = Release of benzocaine into distilled water: effect of polymer molecular weight; assay type: physicochemical; details: HPC 80 k vs. 300 k in active-containing layer, FIG. 11
Description: In this Example, bilaminate mucoadhesive discs containing benzocaine were constructed generally as described in Example IX, substituting benzocaine for Dyclonine. Discs were made using HPC both at the same molecular weight as described in Example 2 (80 k), and at a higher molecular weight (300 k), and the release into distilled water was tested as described in Example X. The results are shown in FIG. 11.

[3] = Transport through human stratum corneum (Franz diffusion cells); assay type: in vitro ADME
Description: In this example, bilaminate mucoadhesive discs, containing as an active substance benzocaine or Dyclonine HCl, were affixed to human stratum corneum and mounted on Franz diffusion cells. The donor side of the cell was filled with pH 6 buffer and the receiver side was filled with PBS. Samples were taken from the receiver side and analyzed using HPLC, and the average amount and percentage of active substance appearing in the receiver cell were determined.

SMILES	Average % Transported ([1]; 15% in bilaminate disc, % of drug initially in device, three hours, donor pH 6 buffer, receiver PBS) [%]	Average Amount Delivered ([1]; pH 6) [μg/cm^2]	release rate of benzocaine vs. molecular weight of HPC [2]	Average % Transported ([3]; 15% in bilaminate disc, donor pH 6 buffer, receiver PBS) [%]	Average Amount Delivered ([3]; pH 6) [μg/cm^2]	Average % Transported ([1]; pH 6) [%]	Average % Transported ([3]; pH 6) [%]
CCOC(=O)c1ccc(N)cc1 [Benzocaine, benzocaine]	3.29	284.63	decrease in release rate of benzocaine with increasing molecular weight of HPC	2.42	255.56		
CCCCOc1ccc(C(=O)CCN2CCCCC2)cc1 [Dyclonine HCl]		282.77			14.60	3.94	0.18
